Data: ChEMBL document CHEMBL1201862, “PubChem BioAssay data set” (2004)
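Five compound concentrations were applied to cells in 96-well plates for 48 hours; endpoints were derived by simple linear interpolation of the resulting dose-response curve. At the GI50, growth is halved.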 Active and inactive are the calls of the source. Cut-off read from the data, not from the text of the source: active = GI50 up to about 1.1 µM and inactive = higher.

How the values were obtained:
Test in all cases: NCI tumour cell line growth inhibition, 48 h
NCI-H460 = test system: NCI-H460
A549 = test system: A549
SNB-75 = test system: SNB-75
SF-268 = test system: SF-268
HL-60 = test system: HL-60
SK-MEL-5 = test system: SK-MEL-5
BT-549 = test system: BT-549
HCT-116 = test system: HCT-116
U-251 = test system: U-251
HCT-15 = test system: HCT-15
MOLT-4 = test system: MOLT-4
EKVX = test system: EKVX
DU-145 = test system: DU-145
HCC 2998 = test system: HCC 2998
786-0 = test system: 786-0
MCF7 = test system: MCF7
UO-31 = test system: UO-31
RXF 393 = test system: RXF 393
ACHN = test system: ACHN
Hs-578T = test system: Hs-578T

Structure (SMILES) | GI50 (NCI-H460) | GI50 (A549) | GI50 (SNB-75) | GI50 (SF-268) | GI50 (HL-60) | GI50 (SK-MEL-5) | GI50 (BT-549) | GI50 (HCT-116) | GI50 (U-251) | GI50 (HCT-15) [µM] | GI50 (MOLT-4) | GI50 (EKVX) | GI50 (DU-145) | GI50 (HCC 2998) | GI50 (786-0) | GI50 (MCF7) | GI50 (UO-31) | GI50 (RXF 393) | GI50 (ACHN) | GI50 (Hs-578T)
c1ccc2c(c1)SCCCSCCCS2 | > 100 µM (inactive) | > 100 µM (inactive) | > 100 µM (inactive) | > 100 µM (inactive) | 28.1 µM (inactive) | > 100 µM (inactive) | > 100 µM (inactive) | 63.4 µM (inactive) | > 100 µM (inactive) | > 100 | 67.6 µM (inactive) | > 100 µM (inactive) | > 100 µM (inactive) | > 100 µM (inactive) | > 100 µM (inactive) | > 100 µM (inactive) | – | – | – | –
Nc1nccc2c1ncn2C1C=C(CO)C(O)C1O (stereo unspecified) | 1.41 µM (inactive) | 98.4 µM (inactive) | 62.1 µM (inactive) | > 96.4 µM (inactive) | 1.82 µM (inactive) | 356 µM (inactive) | 83.2 µM (inactive) | 1.28 µM (inactive) | 51.8 µM (inactive) | 13.2 | 2.55 µM (inactive) | > 94.6 µM (inactive) | > 100 µM (inactive) | 48.2 µM (inactive) | 60.1 µM (inactive) | 4.29 µM (inactive) | 3.39 µM (inactive) | 87.9 µM (inactive) | 20.6 µM (inactive) | –
CC1CCCCN1CC(=O)c1ccc2c(c1)Sc1ccccc1O2 (stereo unspecified) | 14.2 µM (inactive) | 14.6 µM (inactive) | 11 µM (inactive) | 18.7 µM (inactive) | 10.2 µM (inactive) | – | – | 14.2 µM (inactive) | 14.1 µM (inactive) | 19.7 | 19.3 µM (inactive) | 13.3 µM (inactive) | 26.7 µM (inactive) | 17.7 µM (inactive) | 14.1 µM (inactive) | 16 µM (inactive) | 12.3 µM (inactive) | 13.8 µM (inactive) | 15.3 µM (inactive) | 10.8 µM (inactive)
CC(=O)/C(=C/N1CC(=O)NC1=S)C(=O)Nc1ccccc1C | > 100 µM (inactive) | > 100 µM (inactive) | > 100 µM (inactive) | > 100 µM (inactive) | > 100 µM (inactive) | > 100 µM (inactive) | > 100 µM (inactive) | > 100 µM (inactive) | > 100 µM (inactive) | > 100 | > 100 µM (inactive) | > 100 µM (inactive) | > 100 µM (inactive) | > 100 µM (inactive) | > 100 µM (inactive) | – | > 100 µM (inactive) | > 100 µM (inactive) | > 100 µM (inactive) | –
Cc1c(O)c(C)c2c(C)cn(C(=O)C(C)(C)C)c2c1C | 29.5 µM (inactive) | 22.9 µM (inactive) | 0.0201 µM (active) | 31.4 µM (inactive) | 18.7 µM (inactive) | 14.7 µM (inactive) | – | 21 µM (inactive) | 27.3 µM (inactive) | 21.8 | 23 µM (inactive) | 20 µM (inactive) | 20.8 µM (inactive) | 31.3 µM (inactive) | 15.2 µM (inactive) | 3.27 µM (inactive) | 27.9 µM (inactive) | 12.4 µM (inactive) | 14.2 µM (inactive) | 28.4 µM (inactive)
B.CC(=O)OC1CN2CCC1CC2 (stereo unspecified) | > 100 µM (inactive) | > 100 µM (inactive) | – | > 100 µM (inactive) | > 100 µM (inactive) | > 100 µM (inactive) | – | > 100 µM (inactive) | > 100 µM (inactive) | > 100 | > 100 µM (inactive) | > 100 µM (inactive) | > 100 µM (inactive) | > 100 µM (inactive) | > 100 µM (inactive) | > 100 µM (inactive) | – | > 100 µM (inactive) | > 100 µM (inactive) | > 100 µM (inactive)
Cc1ccc(N2C(=O)C=C(C3=C(O)C(=O)N(c4ccc(C)cc4)C3=O)C2=O)cc1 | > 100 µM (inactive) | > 100 µM (inactive) | 42.3 µM (inactive) | > 100 µM (inactive) | > 100 µM (inactive) | > 100 µM (inactive) | > 100 µM (inactive) | > 100 µM (inactive) | > 100 µM (inactive) | > 100 | > 100 µM (inactive) | > 100 µM (inactive) | > 100 µM (inactive) | > 100 µM (inactive) | > 100 µM (inactive) | > 100 µM (inactive) | > 100 µM (inactive) | – | > 100 µM (inactive) | –
CC(C)(C)OC(=O)N1NC(c2ccccc2)CC1c1ccccc1 (stereo unspecified) | 30.4 µM (inactive) | 13.8 µM (inactive) | 17.1 µM (inactive) | 65.2 µM (inactive) | – | 19.6 µM (inactive) | – | 29.7 µM (inactive) | – | 22.1 | 24.8 µM (inactive) | 33.7 µM (inactive) | 27.2 µM (inactive) | 38.5 µM (inactive) | 38.3 µM (inactive) | 23.7 µM (inactive) | 15.7 µM (inactive) | 15.8 µM (inactive) | 28.1 µM (inactive) | 36.6 µM (inactive)
CC(C)(C)c1cc2c(O)c(c1)Cc1cc(C(C)(C)C)cc(c1O)Cc1cc(C(C)(C)C)cc(c1O)Cc1cc(C(C)(C)C)cc(c1O)Cc1cc(C(C)(C)C)cc(c1O)Cc1cc(C(C)(C)C)cc(c1O)Cc1cc(C(C)(C)C)cc(c1O)Cc1cc(C(C)(C)C)cc(c1O)C2 | > 50 µM (inactive) | > 50 µM (inactive) | > 50 µM (inactive) | > 50 µM (inactive) | > 50 µM (inactive) | > 50 µM (inactive) | – | > 50 µM (inactive) | > 50 µM (inactive) | > 50 | > 50 µM (inactive) | > 50 µM (inactive) | > 50 µM (inactive) | > 50 µM (inactive) | > 50 µM (inactive) | > 50 µM (inactive) | > 50 µM (inactive) | > 50 µM (inactive) | > 50 µM (inactive) | > 50 µM (inactive)
Cc1cc(OC(=O)NCn2cc(-c3ccccc3)nn2)ccc1Cl | 67.6 µM (inactive) | 95.5 µM (inactive) | 29.8 µM (inactive) | 48.4 µM (inactive) | 44.3 µM (inactive) | > 100 µM (inactive) | 68.9 µM (inactive) | 85.7 µM (inactive) | > 100 µM (inactive) | 97.9 | 28.3 µM (inactive) | > 100 µM (inactive) | 68.7 µM (inactive) | 16.3 µM (inactive) | > 100 µM (inactive) | > 100 µM (inactive) | – | – | > 100 µM (inactive) | –
CC(=O)[C@H]1[C@@H](OCc2ccccc2)O[N+]([O-])=C(C)[C@@H]1c1ccccc1 | 53.8 µM (inactive) | 53.2 µM (inactive) | > 100 µM (inactive) | 37.2 µM (inactive) | 19 µM (inactive) | 48.5 µM (inactive) | – | – | 44.5 µM (inactive) | 27.7 | 17.2 µM (inactive) | 53.3 µM (inactive) | 43.8 µM (inactive) | > 100 µM (inactive) | 17.6 µM (inactive) | 30.8 µM (inactive) | 20.8 µM (inactive) | 17.3 µM (inactive) | 26.4 µM (inactive) | 19.9 µM (inactive)
